In patent US8703979B2, “Preparation of anticancer-active tricyclic compounds via alkyne coupling reaction” (Taheebo Japan Co., Ltd., priority 2010, dated 2014):

CC(O)c1cc2c(s1)C(=O)c1cccc(O)c1C2=O (stereo not shown) [Example 20, 2-(1-hydroxyethyl)-5-hydroxynaphtho[2,3-b]thiophene-4,9-dione]
melting point: > 193 °C (dec.)
